According to US8952162B2, “Triazolopyridines as phosphodiesterase inhibitors for treatment of dermal diseases” (Leo Pharma A/S, priority 2008, dated 2015):

These compounds were tested against Human recombinant PDE4 (Genbank accession no NM—006203) (Homo sapiens, UniProt Q08499) (assay: PDE4 assay (SPA, cAMP cleavage)). Details: Example 52; human recombinant PDE4, 1 hour incubation, cAMP 1×10^-5M, test compound up to 10 μM; read-out: PDE4 IC50 range.
Format: biochemical
Experimental: At the end of the incubation, the cleavage of the substrate was evaluated by the binding of the AMP product to SPA beads, which generate chemoluminescence when bound to the radioactive tracer. The AMP product inhibited the binding of the radioactive tracer to the beads, and the luminescent signal was competed.

Sequence of Human recombinant PDE4 (Genbank accession no NM—006203) (Q08499 1-673 isoform Q08499-2): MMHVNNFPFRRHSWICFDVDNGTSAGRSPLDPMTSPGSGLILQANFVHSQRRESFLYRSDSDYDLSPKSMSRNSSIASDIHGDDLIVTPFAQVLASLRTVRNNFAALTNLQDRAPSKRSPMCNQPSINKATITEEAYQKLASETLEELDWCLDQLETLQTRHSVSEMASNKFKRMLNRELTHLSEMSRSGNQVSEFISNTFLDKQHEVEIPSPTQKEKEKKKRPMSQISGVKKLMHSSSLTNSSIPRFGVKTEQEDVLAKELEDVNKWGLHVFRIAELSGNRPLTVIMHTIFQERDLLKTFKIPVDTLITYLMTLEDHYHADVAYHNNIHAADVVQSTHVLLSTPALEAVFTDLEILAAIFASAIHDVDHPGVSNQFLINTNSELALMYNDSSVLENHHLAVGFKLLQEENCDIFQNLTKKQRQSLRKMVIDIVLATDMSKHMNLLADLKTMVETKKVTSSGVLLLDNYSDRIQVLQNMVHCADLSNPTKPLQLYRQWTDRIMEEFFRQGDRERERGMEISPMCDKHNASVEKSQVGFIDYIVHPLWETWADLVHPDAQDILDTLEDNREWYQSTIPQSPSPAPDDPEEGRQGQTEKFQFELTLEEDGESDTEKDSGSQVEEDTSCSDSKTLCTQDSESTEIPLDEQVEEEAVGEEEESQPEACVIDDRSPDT

| IC50 | SMILES |
| --- | --- |
| > 1000 nM | COc1ccc(-c2ccc(NC(C)=O)cc2)n2nc(C3CC3)nc12 [Compound 116, N-[4-(2-Cyclopropyl-8-methoxy-[1,2,4]triazolo[1,5-a]pyridin-5-yl)-phenyl]-acetamide] |
| > 1000 nM | COc1ccc(-c2cccc(NC(C)=O)c2)n2nc(C3CC3)nc12 [Compound 107, N-[3-(2-Cyclopropyl-8-methoxy-[1,2,4]triazolo[1,5-a]pyridin-5-yl)-phenyl]-acetamide] |
| 500 to 1000 nM | COc1ccc(-c2ccc(C(F)(F)F)cc2)n2nc(C3CC3)nc12 [Compound 104, 2-Cyclopropyl-8-methoxy-5-(4-trifluoromethyl-phenyl)-[1,2,4]triazolo[1,5-a]pyridine] |
| < 500 nM | COc1ccc(-c2ccncc2)n2nc(C3CC3)nc12 [Compound 126, 2-Cyclopropyl-8-methoxy-5-pyridin-4-yl-[1,2,4]triazolo[1,5-a]pyridine] |
| < 500 nM | COc1ccc(-c2ccc(OC)c3nc(C4CC4)nn23)cc1 [Compound 103, 2-Cyclopropyl-8-methoxy-5-(4-methoxy-phenyl)-[1,2,4]triazolo[1,5-a]pyridine] |
| > 1000 nM | CNC(=O)c1cccc(-c2ccc(OC)c3nc(C4CC4)nn23)c1 [Compound 114, 3-(2-Cyclopropyl-8-methoxy-[1,2,4]triazolo[1,5-a]pyridin-5-yl)-N-methyl-benzamide] |

Same assay, conditions: Example 53; PDE4 assay as in example 52; read-out: PDE4 IC50 range

| IC50 | SMILES |
| --- | --- |
| < 500 nM | COc1ccc(-c2cncc(C#N)c2)n2nc(C3CC3)nc12 [Compound 159, 5-(2-Cyclopropyl-8-methoxy-[1,2,4]triazolo[1,5-a]pyridin-5-yl)-nicotinonitrile] |
| < 500 nM | COc1ccc(-c2ccc3c(c2)CCC3=O)n2nc(C3(COC(=O)N4CCCC4)CC3)nc12 [Compound 238, Pyrrolidine-1-carboxylic acid 1-[8-methoxy-5-(1-oxo-indan-5-yl)-[1,2,4]triazolo[1,5-a]pyridin-2-yl]-cyclopropylmethyl ester] |
| < 500 nM | COc1ccc(-c2cccc(C#N)c2)n2nc(C3(COC(=O)NC(C)C)CC3)nc12 [Compound 152, Isopropyl-carbamic acid 1-[5-(3-cyano-phenyl)-8-methoxy-[1,2,4]triazolo[1,5-a]pyridin-2-yl]-cyclopropylmethyl ester] |
| < 500 nM | CCNC(=O)C1(c2nc3c(OC)ccc(-c4ccc(C#N)cc4)n3n2)CC1 [Compound 211, 1-[5-(4-Cyano-phenyl)-8-methoxy-[1,2,4]triazolo[1,5-a]pyridin-2-yl]-cyclopropanecarboxylic acid ethylamide] |
| < 500 nM | COc1ccc(-c2ccc3c(c2)CCC3=O)n2nc(C3(C(=O)NCCS(C)(=O)=O)CC3)nc12 [Compound 184, 1-[8-Methoxy-5-(1-oxo-indan-5-yl)-[1,2,4]triazolo[1,5-a]pyridin-2-yl]-cyclopropanecarboxylic acid (2-methanesulfonyl-ethyl)-amide] |
| < 500 nM | COc1ccc(-c2ccc3c(c2)COC3=O)n2nc(C3(C(=O)NCc4ccccc4)CC3)nc12 [Compound 179, 1-[8-Methoxy-5-(1-oxo-1,3-dihydro-isobenzofuran-5-yl)-[1,2,4]triazolo[1,5-a]pyridin-2-yl]-cyclopropanecarboxylic acid benzylamide] |
| > 1000 nM | COc1ccc(-c2ccc(C#N)cc2)n2nc(C3(C(=O)O)CC3)nc12 [Compound 147, 1-[5-(4-Cyano-phenyl)-8-methoxy-[1,2,4]triazolo[1,5-a]pyridin-2-yl]-cyclopropanecarboxylic acid] |
| < 500 nM | CCCNC(=O)OCC1(c2nc3c(OC)ccc(-c4ccc5c(c4)CCC5=O)n3n2)CC1 [Compound 230, Propyl-carbamic acid 1-[8-methoxy-5-(1-oxo-indan-5-yl)-[1,2,4]triazolo[1,5-a]pyridin-2-yl]-cyclopropylmethyl ester] |
| < 500 nM | COc1cc(C#N)cc(-c2ccc(OC)c3nc(C4CC4)nn23)c1 [Compound 169, 3-(2-Cyclopropyl-8-methoxy-[1,2,4]triazolo[1,5-a]pyridin-5-yl)-5-methoxy-benzonitrile] |
| < 500 nM | COc1ccc(-c2ccc(C#N)cc2)n2nc(C3(C(=O)NCCS(N)(=O)=O)CC3)nc12 [Compound 207, 1-[5-(4-Cyano-phenyl)-8-methoxy-[1,2,4]triazolo[1,5-a]pyridin-2-yl]-cyclopropanecarboxylic acid (2-sulfamoyl-ethyl)-amide] |
| < 500 nM | COc1cc(-c2ccc(OC)c3nc(C4(COC(=O)N5CCCC5)CC4)nn23)ccc1C#N [Compound 234, Pyrrolidine-1-carboxylic acid 1-[5-(4-cyano-3-methoxy-phenyl)-8-methoxy-[1,2,4]-triazolo[1,5-a]pyridin-2-yl]-cyclopropylmethyl ester] |
| < 500 nM | COc1ccc(-c2ccc(C#N)cc2)n2nc(C3(C(=O)NCC#N)CC3)nc12 [Compound 215, 1-[5-(4-Cyano-phenyl)-8-methoxy-[1,2,4]triazolo[1,5-a]pyridin-2-yl]-cyclopropanecarboxylic acid cyanomethyl-amide] |
| < 500 nM | COc1ccc(-c2cccc(C#N)c2)n2nc(C3(C(=O)NCc4ccccc4)CC3)nc12 [Compound 197, 1-[5-(3-Cyano-phenyl)-8-methoxyl-[1,2,4]triazolo[1,5-a]pyridin-2-yl]-cyclopropanecarboxylic acid benzylamide] |
| < 500 nM | COc1ccc(-c2cccc(C#N)c2)n2nc(C3(C(=O)NCCO)CC3)nc12 [Compound 228, 1-[5-(3-Cyano-phenyl)-8-methoxy-[1,2,4]triazolo[1,5-a]pyridin-2-yl]-cyclopropanecarboxylic acid (2-hydroxy-ethyl)-amide] |
| < 500 nM | COc1ccc(-c2cccc(C(C)=O)c2)n2nc(C3(C(=O)NCc4cccnc4)CC3)nc12 [Compound 221, 1-[5-(3-Acetyl-phenyl)-8-methoxy-[1,2,4]triazolo[1,5-a]pyridin-2-yl]-cyclopropanecarboxylic acid (pyridin-3-ylmethyl)-amide] |
| < 500 nM | CCCNC(=O)OCC1(c2nc3c(OC)ccc(-c4cncc(C#N)c4)n3n2)CC1 [Compound 236, Propyl-carbamic acid 1-[5-(5-cyano-pyridin-3-yl)-8-methoxy-[1,2,4]triazolo[1,5-a]pyridin-2-yl]-cyclopropylmethyl ester] |
| < 500 nM | COc1ccc(-c2cccc(C#N)c2)n2nc(C3(C(=O)NCc4cccnc4)CC3)nc12 [Compound 195, 1-[5-(3-Cyano-phenyl)-8-methoxy-[1,2,4]triazolo[1,5-a]pyridin-2-yl]-cyclopropanecarboxylic acid (pyridin-3-ylmethyl)-amide] |
| < 500 nM | COc1ccc(-c2cncc(C#N)c2)n2nc(C3(COC(=O)N4CCCC4)CC3)nc12 [Compound 242, Pyrrolidine-1-carboxylic acid 1-[5-(5-cyano-pyridin-3-yl)-8-methoxy-[1,2,4]triazolo[1,5-a]pyridin-2-yl]-cyclopropylmethyl ester] |
| < 500 nM | COc1ccc(-c2ccc3c(c2)CCC3=O)n2nc(C3(C(=O)NC(C)C)CC3)nc12 [Compound 181, 1-[8-Methoxy-5-(1-oxo-indan-5-yl)-[1,2,4]triazolo[1,5-a]pyridin-2-yl]-cyclopropanecarboxylic acid isopropylamide] |
| < 500 nM | COc1cc(-c2ccc(OC)c3nc(C4(C(=O)NCc5ccccc5)CC4)nn23)ccc1C#N [Compound 178, 1-[5-(4-Cyano-3-methoxy-phenyl)-8-methoxy-[1,2,4]triazolo[1,5-a]pyridin-2-yl]-cyclopropanecarboxylic acid benzylamide] |
| 500 to 1000 nM | COc1ccc(-c2cccc(C#N)c2)n2nc(C3(C(=O)N4CCOCC4)CC3)nc12 [Compound 196, 3-{8-Methoxy-2-[1-(morpholine-4-carbonyl)-cyclopropyl]-[1,2,4]triazolo-[1,5-a]pyridin-5-yl}-benzonitrile] |
| < 500 nM | COc1ccc(-c2cccc3c2CCC3=O)n2nc(C3(C(=O)NCc4ccccc4)CC3)nc12 [Compound 172, 1-[8-Methoxy-5-(1-oxo-indan-4-yl)-[1,2,4]triazolo[1,5-a]pyridin-2-yl]-cyclopropanecarboxylic acid benzylamide] |
| < 500 nM | COCCNC(=O)C1(c2nc3c(OC)ccc(-c4cccc(C#N)c4)n3n2)CC1 [Compound 202, 1-[5-(3-Cyano-phenyl)-8-methoxy-[1,2,4]triazolo[1,5-a]pyridin-2-yl]-cyclopropanecarboxylic acid (2-methoxy-ethyl)-amide] |
| < 500 nM | CNC(=O)C1(c2nc3c(OC)ccc(-c4ccc(C#N)cc4)n3n2)CC1 [Compound 210, 1-[5-(4-Cyano-phenyl)-8-methoxy-[1,2,4]triazolo[1,5-a]pyridin-2-yl]-cyclopropanecarboxylic acid methylamide] |
| < 500 nM | COc1ccc(-c2cccc3c2CCC3=O)n2nc(C3(C(=O)NCCS(C)(=O)=O)CC3)nc12 [Compound 183, 1-[8-Methoxy-5-(1-oxo-indan-4-yl)-[1,2,4]triazolo[1,5-a]pyridin-2-yl]-cyclopropanecarboxylic acid (2-methanesulfonyl-ethyl)-amide] |
| < 500 nM | COc1ccc(-c2cc(F)cc(C#N)c2)n2nc(C3CC3)nc12 [Compound 164, 3-(2-Cyclopropyl-8-methoxy-[1,2,4]triazolo[1,5-a]pyridin-5-yl)-5-fluoro-benzonitrile] |
| < 500 nM | COc1ccc(-c2cncc(C#N)c2)n2nc(C3(C(=O)NC(C)C)CC3)nc12 [Compound 149, 1-[5-(5-Cyano-pyridin-3-yl)-8-methoxy-[1,2,4]triazolo[1,5-a]pyridin-2-yl]-cyclopropanecarboxylic acid isopropylamide] |
| < 500 nM | COc1ccc(-c2ccc(C#N)cc2)n2nc(C3(C(=O)NCCS(=O)(=O)N(C)C)CC3)nc12 [Compound 219, 1-[5-(4-Cyano-phenyl)-8-methoxy-[1,2,4]triazolo[1,5-a]pyridin-2-yl]-cyclopropanecarboxylic acid (2-dimethylsulfamoyl-ethyl)-amide] |
